Among the data in ChEMBL document CHEMBL5357011, “Chemical Catalysis Guides Structural Identification for the Major In Vivo Metabolite of the BET Inhibitor JQ1” (ACS Med Chem Lett, 2024) are AUCt and CL/F values, retold here.

Assay type in all cases: ADME, organism-based
What all share (conditions): in vivo

Data set [1] in a line: AUC (0 to t) in male C57BL/6NJ mouse at 50 mg/kg, ip measured upto 24 hrs by UHPLC-ESI-Q-Orbitrap-MS analysis. More on the design: time < 24 hrs, dose 50 mg/kg, route ip.
Data set [2] is described as follows: AUC (0 to t) in female C57BL/6NJ mouse at 50 mg/kg, ip measured upto 24 hrs by UHPLC-ESI-Q-Orbitrap-MS analysis. Details: dose 50 mg/kg, time < 24 hrs, route ip.
Data set [3] in a line: Observed apparent oral clearance in male C57BL/6NJ mouse at 50 mg/kg, ip measured upto 24 hrs by UHPLC-ESI-Q-Orbitrap-MS analysis.
Data set [4] in a line: Observed apparent oral clearance in female C57BL/6NJ mouse at 50 mg/kg, ip measured upto 24 hrs by UHPLC-ESI-Q-Orbitrap-MS analysis.

With `Cc1sc2c(c1C)C(c1ccc(Cl)cc1)=N[C@@H](CC(=O)OC(C)(C)C)c1nnc(C)n1-2`, the AUCt in data set [1] was 75.1 µg/mL/h; in data set [2], 41.1 µg/mL/h. Besides, the CL/F was 0.661 (mg)/(ug/ml)/hr in data set [3] and 1.22 (mg)/(ug/ml)/hr in data set [4].

With `[2H]C([2H])([2H])c1sc2c(c1C)C(c1ccc(Cl)cc1)=N[C@@H](CC(=O)OC(C)(C)C)c1nnc(C)n1-2`, the AUCt in data set [1] is 94.2 µg/mL/h; in data set [2], 50.5 µg/mL/h. For the same molecule, the CL/F in data set [3] is 0.528 (mg)/(ug/ml)/hr.
